This is an account of results in patent publication US11040052B2, “Methods and pharmaceutical compositions for modulating autophagy in a subject in need thereof” (INSERM (INSTITUT NATIONAL DE LA SANTE ET DE LA RECHERCHE …, priority 2013, dated 2021).

“Also recorded” adds a separate entry of the source.

The subject of one test is AMPK, mTORC1. The test can be described thus: Immunoblot of AMPK phosphorylation and mTORC1 activity (p70s6k phosphorylation). To be noted: nutrient-depleted (starved) cells in vitro. The test is classed as cell-based, human. The protocol:
For immunoblotting, 25 μg of proteins were then separated on 4-12% Bis-Tris acrylamide (Invitrogen) or 12% Tris-Glycine SDS-PAGE precast gels (Biorad, Hercules, USA) and electrotransferred to ImmobilonTM membranes (Millipore Corporation, Billerica, USA). Membranes were then sliced in different parts according to the molecular weight of the protein of interest to allow simultaneous detection of different antigens within the same experiment. […] Development was performed with appropriate horseradish peroxidase (HRP)-labeled secondary antibodies (Southern Biotech, Birmingham, USA) plus the SuperSignal West Pico chemoluminescent substrate (Thermo Scientific-Pierce). An anti-glyceraldehyde-3-phosphate dehydrogenase antibody (Chemicon International, Temecula, USA) was used to control equal loading of lanes.
Background: In western blotting, separated proteins are transferred to a membrane and probed.

Test [1] has as its system intracellular amino acid levels. The test can be described thus: Intracellular amino acid levels by mass spectrometry. The test is classed as cell-based. To be noted: starved cells. The protocol:
Profiling of intracellular metabolites was performed on a RRLC 1260 system (Agilent Technologies) coupled to a QTOF 6520 (Agilent) equipped with an electrospray source operating in positive ion and full scan mode from 100 to 1000 Da. The gas temperature was set at 350° C. with a gas flow of 10 L·min^1. The capillary voltage was set at 4.0 kV, and the fragmentor at 150 V. Two reference masses were used to maintain the mass accuracy during analysis: 121.050873 (C5H4N4) and 922.009798 (C18H18O6N3P3F24). Five μL of sample were injected on a 150 mm×2.1 mm 3.5 μm SB Aq column (Agilent) with a pre-column 30 mm×2.1 mm 3.5 μm Eclipse plus (Agilent). The gradient mobile phase consisted of water with 10 mmol/L of ammonium acetate and 0.01% of acetic acid (A) and acetonitrile (B). Initial composition of mobile phase was 2% of B, followed by an increase to 95% of B in 10 min. The flow rate was set to 0.3 mL·min^−1.

In the next test the test system is MCA205 tumor. The test can be described thus: Growth of transplantable tumors with chemotherapy. The following applies: for tumor growth, combined with MTX: immunocompetent wild type mice, agent given before and with mitoxanthrone; for tumor growth, combined with MTX, immunodeficient mice: nu/nu (nude athymic) mice; for tumor growth, combined with oxaliplatin: data not shown. Type of test: in vivo, mice. Here is the method: C57BL/6 mice (Charles River Laboratory, Lentilly, France) were bred and maintained according to both the FELASA and the Animal Experimental Ethics Committee Guidelines (Val de Marne, France). Mice were housed in a temperature-controlled environment with 12 h light/dark cycles and received food and water ad libitum. For HC-related experiments, mice were injected intraperitoneally with a single 100 mg/kg dose and 6 h later were sacrificed and tissues were immediately frozen in liquid nitrogen. For DCA- and DMKG-related experiments, mice were subjected to 24 h starvation and injected intraperitoneally each 8 h with a 100 mg/kg of either DCA or DMKG solution prepared in PBS. After 24 h of starvation, mice were sacrificed and tissues were immediately frozen in liquid nitrogen after extraction and homogenized two cycles for 20 s at 5,500 rpm using Precellys 24 tissue homogenator (Bertin Technologies, Montigny-le-Bretonneux, France) in a 20 mM Tris buffer (pH 7.4) containing 150 mM NaCl, 1% Triton X-100, 10 mM EDTA and Complete® protease inhibitor cocktail (Roche Applied Science). Tissue extracts were then centrifuged at 12,000 g at 4° C. and supernatants were collected. Protein concentration in the supernatants was evaluated by the bicinchoninic acid technique (BCA protein assay kit, Pierce Biotechnology, Rockford, Ill.). For hydroxycitrate-related weight-loss experiments, autophagy-deficient Atg4b^−/− mice were used. Atg4b^−/− mice have been previously described (Mariño et al., 2010). For HC-, spermidine-, and resveratrol-related experiments (tumour growth) mice were intraperitoneally injected with respectively 100 mg/kg, 50 mg/kg and 100 mg/kg doses at day 8 and day 9. At day 9, mice were intraperitoneally injected with 2 mg/kg single dose of Mitoxanthrone. For starvation related experiment (tumour growth) mice were treated as previously described (Fabrizio et. al., 2010).
Six weeks old female C57BL/6, Balb/c and nude athymic mice (Harlan Laboratory, Gannat, France) were bred and maintained according to both the FELASA and the Animal Experimental Inserm Ethics Committee Guidelines (project: 2012-69). Mice were housed in a temperature-controlled environment with 12 h light/dark cycles and received food and water ad libitum. For tumor growth experiments, procedures adopted are described as follows: 3×10^5 tumor cells were subcutaneously inoculated; when tumors became palpable (day −1 before chemotherapy), mice were first intraperitoneally injected with 100 mg/kg Potassium Hydroxycitrate, 10 mg/kg Acetylsalicylic Acid, 30 mg/kg SB204990, 30 mg/kg c646, 5 mg/kg Rapamycin, 25 mg/kg Resveratrol, 50 mg/kg Spermidine. At day 0, mice were intraperitoneally injected with the abovementioned compounds and with 5.17 mg/Kg Mitoxanthrone or 5 mg/kg Oxaliplatin. Tumor size was measured every two days. For starvation experiments, mice underwent 48 hour fasting followed by intreperitoneal injection of chemotherapeutics. For autophagy induction study, 6 hours after CRMs administration, mice were sacrificed and tissues were snap-frozen in liquid nitrogen after extraction and homogenized two cycles for 20 s at 5,500 rpm using Precellys 24 tissue homogenator (Bertin Technologies, Montigny-le-Bretonneux, France) in a 20 mM Tris buffer (pH 7.4) containing 150 mM NaCl, 1% Triton X-100, 10 mM EDTA and Complete® protease inhibitor cocktail (Roche Applied Science, Penzberg, Germany). Tissue extracts were then centrifuged at 12,000 g at 4° C. and supernatants were collected. Protein concentration in the supernatants was evaluated by the bicinchoninic acid technique (BCA protein assay kit, Pierce Biotechnology, Rockford, US.

On to `O=C(O)CCCCC1CCSS1` (centres unmarked) [LA, lipoic acid], for which the “AMPK phosphorylation and mTORC1 activity in starved cells” value with AMPK, mTORC1 is “blunted starvation-induced mTORC1 inhibition, AMPK activation”.
As for `COC(=O)CCC(=O)C(=O)OC` [DMKG, dimethyl-α-ketoglutarate], the “intracellular amino acid levels” value in test [1] is reported as “failed to enhance intracellular amino acid levels”.
On to `CC(C)CC(=O)C(=O)O` [KIC, ketoisocaproic acid], for which the “AMPK phosphorylation and mTORC1 activity in starved cells” value in the test on AMPK, mTORC1 was “inhibition of AMPK phosphorylation and reversion of mTORC1 dephosphorylation; also recorded: prevented starvation-associated mTORC1 inhibition and AMPK activation”. In addition, the “intracellular amino acid levels” value in test [1] was “barely increased intracellular leucine levels”.
Regarding `CC1=NN(c2ccc(C(=O)O)cc2)C(=O)/C1=C\c1ccc(-c2cc(C)c(C)cc2[N+](=O)[O-])o1` [c646], in the test with MCA205 tumor, the “tumor growth, combined with MTX” value is reported as “can enhance chemotherapy efficacy” and the “tumor growth, combined with MTX, immunodeficient mice” value is given as “failed”. The “tumor growth, combined with MTX” value in the test on MCA205 tumor (listed as C646) is “HC could be replaced”.
For the compound `O=C(O)CC(O)(C(=O)O)C(O)C(=O)O` (centres unmarked) [HC, hydroxycitrate], in the test with MCA205 tumor (MCA205 cells with Atg5 or Atg7 shRNA), the “tumor growth, combined with MTX, autophagy-deficient tumors” value is on record as “tumor growth control is lost; also recorded: largely therapy-resistant”. Further, in the test on MCA205 tumor, the “tumor growth, combined with oxaliplatin” value is “caused superior tumor growth reduction, but only in WT, not in nu/nu mice”; the “tumor growth, combined with MTX” value is “mimics the effects of 48 h fasting in delaying subcutaneous MCA205 tumor growth; also recorded: improves the efficacy of chemotherapy and significantly reduces tumor growth of MCA205 cells in wild type; also recorded: similarly improved tumor growth reduction by MTX; also recorded: more efficient than monotherapy with MTX”; the “tumor growth, combined with MTX, immunodeficient mice” value is “not in immunodeficient nu/nu mice”. In addition, in the test with MCA205 tumor (listed as hydroxycitrate), the “tumor growth, combined with oxaliplatin” value is listed as “improved the therapeutic outcome of treatments with MTX (FIG. 8G) or oxaliplatin” and the “tumor growth, combined with MTX” value is “enhanced the tumor growth-inhibitory effect of chemotherapy as efficiently as did starvation; also recorded: improved the therapeutic outcome of treatments with MTX”. Besides, in the test on MCA205 tumor (tumors engineered to express the ecto-ATPase CD39, data not shown), the “tumor growth, combined with MTX, CD39-expressing tumors” value is “lost its therapeutic efficacy”.
